Experimental findings from ChEMBL document CHEMBL1833928, “Metabolism evaluation of the anticancer candidate AC04 by biomimetic oxidative model and rat liver microsomes” (Eur J Med Chem, 2011) are described below.

One data set has as its system CCRF S-180. Nature of the data set: Antitumor activity against mouse S180 cells xenografted in mouse assessed as reduction of tumor weight at 100 umol/kg/day, ip administered after 48 hrs of tumor inoculation qd for 8 days. Type of data set: functional. On the set-up: scale not given: the % may be the effect or the level left.
A further data set has as its system Plasma. The data set can be described thus: Drug metabolism in Wistar rat plasma assessed as 1-oxo-AC04 at 1.5 mg/kg, iv administered as single dose after 120 hrs by LC-MS/MS analysis. On the set-up: dose 1.5 mg/kg, route intravenous. Type of data set: ADME, organism-based. The conditions noted are these: in vivo.
A further data set has as its system Liver microsomes. The data set can be described thus: Drug metabolism in Wistar rat liver microsomes assessed as 1-oxo-AC04 after 60 mins by LC-MS/MS analysis. Type of data set: ADME, Microsome. Particulars: 1 h. (Liver microsomes are vesicles of endoplasmic reticulum, rich in cytochrome P450 enzymes.)

For `Cc1ccc(CN2C(=O)S/C(=C\c3c4ccccc4nc4ccccc34)C2=O)cc1`, in the data set on CCRF S-180, the Activity is 85%. The Drug metabolism result in the data set with Plasma and in the data set with Liver microsomes was “Active” in each case.
